From PMC12048343, “Discovery of a small molecule secreted clusterin enhancer that improves memory in Alzheimer’s disease mice” (npj Drug Discovery, 2025)
Where two headings read alike, the source gives them in different places.

How the values were obtained:
BRD4 = BRD4 (Homo sapiens, UniProt O60885); test: BRD4 inhibition assay; assay type: biochemical
[1] = Liver microsome stability assay; assay type: in vitro ADME; details: pH 7.4; human liver microsomes 0.5 mg/mL, NADPH, 37 °C, up to 120 min; read-out: Microsomal Stability t1/2
Method: An aliquot (1 µL) of test compound (1 mM, 100% DMSO) was added to an aqueous liver microsome solution (1000 µL, PBS pH 7.4, 0.5 mg/mL human liver microsomes (Thermo Fisher Scientific, Cat#HMMPL), 2 mM NADPH, 2 mM MgCl2) and incubated at 37 °C for 120 min. Aliquots (50 µL) of the microsome solution were taken at various time points (0, 5, 10, 15, 30, 60, 90, 120 min) and added to a reaction quenching solution (200 µL 100% Acetonitrile) containing an internal standard. Solutions were clarified by centrifugation (16,000 x g, 5 min), and the supernatants were transferred to new tubes and lyophilized. Samples were reconstituted in 100 µL of 50/50/0.1 (Water/Acetonitrile/Formic Acid) prior to analysis via liquid chromatography-tandem mass spectrometry (LC-MS/MS). Chromatographic peak areas normalized to the internal standard were plotted at each time point and the half-life (t1/2) of compound in liver microsomes was determined by using the trendline equation to calculate the time at which compound abundance was 50% of that at time point 0 (t0).

[2] = In-vivo pharmacokinetics, brain levels after oral administration; details: mice
Method: Following oral administration of compound, mice brain tissue and plasma were collected after euthanasia and perfusion at 1, 2, 4, 6 and 8 h. All animals will be euthanized by ketamine/xylazine injection to allow cardiac puncture and saline perfusion, which is consistent with recommendations of the AVMA Panel on Euthanasia. Brain tissue were homogenized in a bead beater using 5 volumes of ice-cold 80% acetonitrile (1/5; mg of brain/µL of 80% ACN). Plasma analytes were extracted using 4 volumes of ice-cold acetonitrile (1/4; µL of plasma/µL of ACN). Solutions were clarified by centrifugation (16,000 x g, 5 min) and the supernatants were transferred to new tubes and lyophilized. Samples were reconstituted in 100 µL of 50/50/0.1 (Water/Acetonitrile/Formic Acid) prior to analysis via liquid chromatography-tandem mass spectrometry (LC-MS/MS). An internal standard (IS) was added to every sample to account for compound loss during sample processing. Standards were made in drug naïve plasma and brain lysates with increasing amounts of analyte (S1,S2: 0 pmol/ S3,S4: 1 pmol/ S5,S6: 10 pmol/ S7,S8: 100 pmol, S9,S10: 1000 pmol). The standard curve was made by plotting the known amount of analyte per standard vs. the ratio of measured chromatographic peak areas corresponding to the analyte over that of the IS (analyte/IS). The trendline equation was then used to calculate the absolute concentrations of each compound in plasma and brain tissue.
Analysis of compound levels was done at the UCLA Pasarow Mass Spectrometry Lab (PMSL; Julian Whitelegge, Ph.D., Director). A targeted LC-MS/MS assay was developed for each compound using the multiple reaction monitoring (MRM) acquisition method on a 6460 triple quadrupole mass spectrometer (Agilent Technologies) coupled to a 1290 Infinity HPLC system (Agilent Technologies) with a Phenomenex analytical column (Kinetex 1.7 µm C18 100 Å 100 ×2.1 mm). The HPLC method utilized a mixture of solvent A ([…]) and solvent B ([…]) and a gradient was use for the elution of the compounds (min/%B: 0/1, 3/1, 19/99, 20/1, 30/1). Two fragment ions originating from each compound were monitored at specific LC retention times to ensure specificity and accurate quantification in the complex biological samples. The normalized chromatographic peak areas were determined by taking the ratio of measured chromatographic peak areas corresponding to each compound over that of the internal standard (Analyte/IS).

[3] = Blood-Brain Barrier (BBB) permeability assay (IAM column, Pm); assay type: in vitro ADME; details: pH 7.4; Pm > 1.0 = CNS+
Method: A liquid chromatography-ultraviolet/visible spectroscopy (LC-UV/Vis) assay was performed on a 1290 Infinity HPLC system (Agilent Technologies) with an HPLC column containing immobilized phosphatidylcholine (IAM.PC.DD, Regis Technologies, Cat#774011, 5 µm 300 Å 100 ×4.6 mm). The HPLC method was a mixture of 6.7 mM phosphate buffer saline (pH 7.4; solvent A) and acetonitrile (solvent B), and a gradient was used for the elution of the compounds (min/%B: 0/20, 20/60, 21/20, 30/20). The retention time of the compound (tr) and void volume time of the column (t0) were recorded. Blood-brain barrier (BBB) permeability (Pm) was calculated using the following equations as described by Yoon et al. (10.1177/1087057105281656):
KIAM = (tr − t0) / t0; Pm = (KIAM / MW^4) x 10^10
Compounds with a Pm > 1.0 were determined to be BBB permeable (CNS + ) at pH 7.

[4] = Brain tissue binding assay (dialysis); assay type: in vitro ADME
Method: (§1) Brain tissue was homogenized in PBS (pH 7.4) (1: 3 weight(mg)/volume(µL)) and the protein concentration was determined using the Micro BCA™ Protein Assay Kit (Thermo Fisher Scientific, Cat#23235). Brain homogenate was clarified and diluted to 20 mg/mL in PBS (pH 7.4). Either brain homogenate or plasma was and added to Slide-A-Lyzer™ MINI Dialysis Devices, 10 K MWCO dialysis cups (Thermo Fisher Scientific, Cat#PI88401) in a 48-well plate containing PBS (500 µL; pH 7.4). 1 µL of 1 mM compound was added to the brain homogenate (Final Concentration: 2 µM compound, 0.5% DMSO) and incubated on a rocker for 4.5 hours at 37 °C. 50 µL of brain homogenate or plasma (within the dialysis cup) and PBS (within the 48-well plate) were transferred to new microcentrifuge tubes containing 400 µL of quenching reagent (100% Acetonitrile) containing internal standard. Solutions were clarified by centrifugation (16,000 x g, 5 min), and the supernatants were transferred to new tubes and lyophilized. Samples were reconstituted in 100 µL of 50/50/0.1 (Water/Acetonitrile/Formic Acid) prior to analysis via liquid chromatography-tandem mass spectrometry (LC-MS/MS). The % of the unbound drug (fu,bound) was calculated using the following equation:
(§2) % Bound = [1− (PBS chromatographic peak area/ brain homogenate or plasma chromatographic peak area)] x 100

[5] = Plasma binding assay (dialysis); assay type: in vitro ADME; details: dialysis 4.5 hours, 37 °C
Method: as §1, §2

[6] = brain homogenate 20 mg/mL, 2 µM compound, dialysis 4.5 hours, 37 °C

| SMILES | IC50 (BRD4) [nM] | half-life at 1 µM [1] [h] | unbound brain concentration versus sCLU EC50 ([2]; oral 3, 10 or 30 mg/kg (Fig. S6)) | PAMPA Pm [3] | Brain Tissue Binding [4, 6] [% bound] | Plasma Binding [5] [% bound] | unbound brain concentration versus sCLU EC50 ([2]; oral 3 mg/kg, one hour post administration) | unbound brain concentration versus sCLU EC50 ([2]; oral 10 mg/kg, one hour post administration) | maximum brain concentration (total) ([2]; oral 30 mg/kg, one hour after administration) [nM] | concentration at 1 h ([2]; mouse, oral 30 mg/kg, 1 h, from total brain level and brain tissue binding 75.3%, read-out: unbound brain concentration) [nM] | Brain Tissue Binding [4] [%] |
| --- | --- | --- | --- | --- | --- | --- | --- | --- | --- | --- | --- |
| Cc1sc2c(c1C)C(c1ccc(Cl)cc1)=N[C@@H](CC(=O)OC1COC1)c1nnc(C)n1-2 [DDL-356] | 23 | 1.25 | reaches higher concentrations of unbound drug in the brain above its sCLU EC50 at lower doses | 0.96 | 57 | 79 | – | – | – | – | – |
| Cc1sc2c(c1C)C(c1ccc(Cl)cc1)=N[C@@H](CC(=O)OC1CC1)c1nnc(C)n1-2 [DDL-357] | 20 | 1.02 | – | 1.66 | 75 | 88 | below the sCLU EC50 | below the sCLU EC50 | 1850 | 457 | 75.3 |
